# According to ChEMBL document CHEMBL5365404, “Synthesis and biological evaluation of 2-(Tetrazol-5-yl)sulfonylacetamides as inhibitors of Mycobacterium tuberculosis and Mycobacterium marinum” (Bioorg Med Chem Lett, 2023):
# Assays:
# [1] = test system: Mycobacterium tuberculosis; experiment: Antitubercular activity against Mycobacterium tuberculosis assessed as reduction in microbial growth by broth dilution method; assay type: functional
# Mycobacterium marinum = experiment: Antitubercular activity against Mycobacterium marinum assessed as reduction in microbial growth by broth dilution method; assay type: functional
# [2] = Lipophilicity, log D of the compound at pH 7.4; assay type: physicochemical; details: buffer
# [3] = Solubility of the compound at pH 2.0; assay type: physicochemical; details: buffer
# [4] = Solubility of the compound at pH 6.5; assay type: physicochemical; details: buffer
# [5] = Half life in mouse liver microsomes; assay type: ADME, Microsome
# [6] = Intrinsic clearance in mouse liver microsomes; assay type: ADME, Microsome; details: read-out: CLH
Compound,MIC90 [1] [µg/mL],MIC90 (Mycobacterium marinum) [µg/mL],also measured
CC1CCN(C(=O)C[S+]([O-])c2nnnn2-c2ccccc2)CC1 (centres undefined),25,100,–
O=C(CS(=O)(=O)c1nnnn1-c1ccccc1)N1CCN(c2ccccc2)CC1,10,100,–
Cn1nnnc1SCC(=O)N1CCCCC1,> 100,> 100,–
CCC1CCCCN1C(=O)CS(=O)(=O)c1nnnn1C (centres undefined),2.5,100,–
Cn1nnnc1S(=O)(=O)CC(=O)N1CCCC1,6.25,12.5,–
CC1CCN(C(=O)CS(=O)(=O)c2nc(-c3ccc(Cl)cc3)n[nH]2)CC1,> 100,> 100,–
CC1CCCN(C(=O)CS(=O)(=O)c2nnnn2C)C1 (centres undefined),6.25,25,–
CN(C(=O)CS(=O)(=O)c1nnnn1C)c1ccccc1,2.5,100,–
O=C(CS(=O)(=O)c1nnc2ncccn12)N1CCCCC1,> 100,> 100,–
Cn1nnnc1SCC(=O)N1CCCC1,> 100,> 100,–
CC1CCN(C(=O)CSc2nnnn2-c2ccccc2)CC1,> 50,> 100,–
Cn1nnnc1S(=O)(=O)CC(=O)N1CCCCC1,1.56,12.5,logD [2]: 1.6; solubility [3]: > 100 mg/mL; solubility [4]: > 100 mg/mL; half-life [5]: 2.93 h; microsomal CLint [6]: 10 µL/min/mg
CC1CCCCN1C(=O)CS(=O)(=O)c1nnnn1C (centres undefined),3.13,25,–
O=C(CSc1nnnn1-c1ccccc1)N1CCCC1,50,100,–
O=C(CS(=O)(=O)c1nnnn1-c1ccccc1)N1CCCCC1,10,100,–
CC1CCN(C(=O)CS(=O)(=O)c2nnnn2C)CC1,1.56,12.5,–

Compound,MIC90 [1] [µg/mL],MIC90 (Mycobacterium marinum) [µg/mL],also measured
Cn1nnnc1S(=O)(=O)CC(=O)N1CCN(c2ccccc2)CC1,1.25,10,logD [2]: 4.8; solubility [3]: 50 mg/mL; solubility [4]: 25 mg/mL; half-life [5]: 0.333 h; microsomal CLint [6]: 85 µL/min/mg
CCN(CC)C(=O)CS(=O)(=O)c1nnnn1-c1ccccc1,20,> 100,–
O=C(CS(=O)(=O)c1nnnn1-c1ccccc1)N1CCCC1,20,> 100,–
CCN(CC)C(=O)CS(=O)(=O)c1nnnn1C,10,100,–
CN(C(=O)C[S+]([O-])c1nnnn1-c1ccccc1)c1ccccc1 (centres undefined),50,100,–
O=C(CS(=O)(=O)c1nnnn1-c1ccccc1)NC1CCCCC1,100,100,–
CC1CCN(C(=O)CS(=O)(=O)c2nnnn2-c2ccccc2)CC1,12.5,100,–
CN(C(=O)CS(=O)(=O)c1nc(O)nn1C)c1ccccc1,> 100,> 100,–
Cn1nnnc1S(=O)(=O)CC(=O)N1CCCCCC1,1.25,100,–
O=C(CS(=O)(=O)c1nnc2ncccn12)N1CCN(c2ccccc2)CC1,> 100,> 100,–
Cn1nnnc1S(=O)(=O)CC(=O)NC1CCCCC1,6.25,12.5,–
COc1cccc(-c2n[nH]c(S(=O)(=O)CC(=O)N3CCC(C)CC3)n2)c1,> 100,> 100,–
CO[C@H]1/C=C/O[C@@]2(C)Oc3c(C)c(O)c4c(O)c(c(/C=N/N5CCN(C)CC5)c(O)c4c3C2=O)NC(=O)/C(C)=C\C=C\[C@H](C)[C@H](O)[C@@H](C)[C@@H](O)[C@@H](C)[C@H](OC(C)=O)[C@@H]1C [RIFAMPIN],0.06,0.2,–
CN(C(=O)CSc1nnnn1-c1ccccc1)c1ccccc1,> 100,> 100,–
CN(C(=O)CS(=O)(=O)c1nnnn1-c1ccccc1)c1ccccc1,10,50,–
CC1CCCCN1C(=O)CS(=O)(=O)c1nnnn1-c1ccccc1 (centres undefined),12.5,100,–
